Experimental data reported in patent US4368194A, “Pharmacologically active amine boranes” (The United States of America as represented by the …, priority 1981, dated 1983).
Read-outs that look alike come from different tables or passages of the source.

What was measured:
[1] = tested on: carrageenan induced edema in mouse foot pads; assay: Anti-inflammatory screen (carrageenan induced foot edema); type: in vivo, mice; conditions: for Anti-inflammatory Screen: 10 mg/kg × 2 intraperitoneally, mice
Description: CF1 male mice (about 30 g) were administered test drugs at 10 mg/kg in 0.05% polysorbate .80-water intraperitoneally 3 hr and 30 min prior to 0.05 ml of 2% carrageenan in 0.9% saline injected into the plantar surface of the right hind foot. Saline injected into the left hind foot served as a base line. After 3 hr, both feet were excised at the tibiotarsal (ankle) joint according to the modified (Roszkowski et al., J. Pharm. Exp. Ther., 179, 114 1971) method of Winter, resulting in an 87 mg net increase in the weight of the control animals' feet.

[2] = tested on: liver mitochondria; assay: Oxidative phosphorylation, α-ketoglutarate as substrate; type: biochemical, rats; conditions: 5 μmoles; for Oxidative Phosphorylation α Ketoglutarate State 3: ADP stimulated respiration; for Oxidative Phosphorylation α Ketoglutarate State 4: basal respiration
Description: (§1) Basal and adenosine diphosphate stimulated respiration on 10% liver homogenates was measured using succinate or αketoglutarate as substrate. See Glatt, et al., supra. The reaction vessel contained sucrose 55μ moles, KCl 22μ moles, K2 HPO4 22μ moles, test compounds at 5μ moles in 1% CMC and sodium succinate 90μ moles or αketoglutarate 60μ moles in a total volume of 1.8 ml. […] The rate of respiration was calculated at μl of O2 consumed/hr/mg wet weight of liver.

[3] = target: T1, prostaglandin synthetase from beef seminal vesicle (Bos taurus, UniProt O62664); assay: Prostaglandin synthetase activity; type: biochemical; conditions: 10^-6 M; for activity at 1 µM: 1 h, read-out: Prostaglandin Synthesis
T1 construct: purchased; host or cells: beef seminal vesicle
T1 sequence (O62664 25-600): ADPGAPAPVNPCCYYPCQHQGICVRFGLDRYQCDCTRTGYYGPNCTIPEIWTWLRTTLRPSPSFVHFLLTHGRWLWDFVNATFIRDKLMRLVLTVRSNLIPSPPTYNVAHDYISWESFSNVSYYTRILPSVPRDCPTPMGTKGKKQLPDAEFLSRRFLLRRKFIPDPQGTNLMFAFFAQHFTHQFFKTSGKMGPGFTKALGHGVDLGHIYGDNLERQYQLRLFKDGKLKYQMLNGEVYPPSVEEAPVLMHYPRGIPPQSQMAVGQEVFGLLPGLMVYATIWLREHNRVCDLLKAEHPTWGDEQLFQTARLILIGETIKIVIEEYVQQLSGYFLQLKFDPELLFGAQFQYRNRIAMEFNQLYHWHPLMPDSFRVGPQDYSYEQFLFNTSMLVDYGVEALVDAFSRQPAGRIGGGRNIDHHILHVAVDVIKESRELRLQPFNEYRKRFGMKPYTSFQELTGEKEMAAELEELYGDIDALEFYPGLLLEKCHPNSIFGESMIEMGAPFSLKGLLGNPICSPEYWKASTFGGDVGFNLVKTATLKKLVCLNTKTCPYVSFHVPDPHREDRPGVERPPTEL
Description: After 1 hr at 37° C. the reaction was stopped with 1 N HCl and extracted with ethyl ether and evaporated. […] The plates were dried and developed in iodine vapor and with the use of prostaglandin standards the appropriate areas were scraped and counted for ^3 H content. Indometacin was used as a standard at 10^-4 M concentration. Test drugs were used at 10^-6 M.

[4] = tested on: cAMP levels in PMNs; assay: Cyclic-3',5'-adenosine monophosphate levels (cAMP) in PMNs; type: cell-based; conditions: 1 h
Description: (§2) Polymorphonuclear neutrophils (PMNs) were collected from the peritoneal cavity four hr after the injection of 35 ml of 0.5% oyster glycogen in isotonic saline (Orange et al., J. Exp. Med., 127, 767 1968). The PMNs were centrifuged down at 800 g for 20 min, washed, and resuspended in minumen essential medium (MEM) with 10% fetal calf serum pH 7.4.
Isolated PMNs were incubated with test drugs at 5μ moles for 1 hr at 37° C. in MEM at pH 7.4. The reaction was stopped with 6% trichloroacetic acid. The cyclic-3',5'-adenosine monophosphate levels were determined by the radioimmunoassay of Gilman, Proc. Natl. Acad. Sci. (USA), 67, 305 (1970), using 3H(G)-cyclic-3',5'-adenosine monophosphate (39.8 Cu/m mol). Results were calculated in p mole/10^7 PMNs cells.

[5] = tested on: Acid phosphatase; assay: Lysosomal free acid phosphatase activity, liver homogenate; type: biochemical, rats; conditions: 5 μmoles, in vitro; 20 min
Description: (§3) Lysosomal enzymatic assays - Sprague Dawley rats (about 160 g) were sacrificed, the liver excised, and a 10% homogenate (4x) in 0.25 M sucrose and 0.001 M (ethylenedinitrilo) tetra acetic acid, ph 7.2 was prepared.
(§4) Acid phosphatase activity (Gianetto et al., Biochem J., 59, 433 1955) was carried out by incubating with 0.1 Mβ-glycerol phosphate in 0.1 M acetate, pH 5.0 with 5 μmoles of test drugs in 1% carboxymethylcellulose (CMC) for 20 min with liver homogenate and 60 min with resuspended PMNs. Lysosome enzymes were released by 0.02% alkyl phenoxy polyethoxy ethanol-100 to obtain the total enzymatic activity. The reaction was stopped with 10% trichloroacetic acid and the solution centrifuged. Aliquots of the supernatant were assayed for inorganic phophate content by the method of Chen et al., Anal Chem., 28, 1756 (1956). Percent free acid phosphatase was calculated. Cathepsin activity was determined in an analagous manner except the substrate used was 2% azocasein (Schleuning et al., Methods in Enzymology, XLV, 330 1976) in 0.1 M acetate buffer pH 5.0. The supernatant was assayed for acid soluble peptide fragments at 366 nm. Percent free cathepsin activity was calculated.

[6] = tested on: CF1 male mice; assay: Writhing reflex (acetic acid); type: in vivo; conditions: 20 mg/kg intraperitoneally, mice
Description: CF1 male mice were administered test drugs at 20 mg/kg intraperitoneally 20 min (see Hendershat et al., J. Pharmacol Exp. Ther. 125, 237 1959) prior to the administration of 0.5 ml of 0.6% acetic acid (Vingar et al., European J. PHarmacol, 37, 23 1976). After 5 min the number of stretches, characterized by repeated contractures of the abdominal musculature accompanied by extension of the hind limbs, was counted for the next 10 min. The control mice had 78 stretch reflexes per 10 min.

[7] = tested on: liver mitochondria; assay: Oxidative phosphorylation, succinate as substrate; type: biochemical, rats; conditions: 5 μmoles; for Oxidative Phosphorylation Succinate State 3: ADP stimulated respiration; for Oxidative Phosphorylation Succinate State 4: basal respiration
Description: as §1

[8] = tested on: Cathepsin; assay: Lysosomal free cathepsin activity, liver homogenate; type: biochemical, rats; conditions: 5 μmoles; for Liver % Free Cathepsin Activity, pH5: in vitro, 20 min
Description: as §3, §4

[9] = tested on: Acid phosphatase; assay: Lysosomal free acid phosphatase activity, PMNs; type: cell-based; conditions: 5 μmoles, in vitro; 60 min
Description: as §2, §4

[10] = tested on: Cathepsin; assay: Lysosomal free cathepsin activity, PMNs; type: cell-based; conditions: 5 μmoles; for PMNs % Free Cathespin Activity, pH5: in vitro, 60 min
Description: as §2, §4

[11] = in vivo; conditions: mouse
[12] = pH 7.4, read-out: PMNs cAMP Level

Compound	Anti-inflammatory Screen [1]	Oxidative Phosphorylation α Ketoglutarate State 3 [2]	Oxidative Phosphorylation α Ketoglutarate State 4 [2]	activity at 1 µM [3]	activity at 5 µmol [4, 12]	Liver % Free Acid Phosphatase Activity, pH5 [5]	Writhing Reflex [6]	both states 3 and 4 respiration with succinate [7]	Oxidative Phosphorylation Succinate State 3 [7]	Oxidative Phosphorylation Succinate State 4 [7]	Liver % Free Cathepsin Activity, pH5 [8]	PMNs % Free Acid Phosphatase Activity, pH5 [9]	PMNs % Free Cathespin Activity, pH5 [10]	LD50 [11]	other results
N#C[BH2-][NH2+]CC[NH2+][BH2-]C#N [XX, Ethylenediamine-bis(cyanoborane)]	87 % Control	25 ± 8 % Control	50 ± 18 % Control	81 ± 5%	28%	77 ± 8 % Control	95 % Control	inhibited	10 ± 5 % Control	13 ± 5 % Control	80 ± 7 % Control	100 ± 10 % Control	57 ± 2 % Control	> 150 mg/kg	both states 3 and 4 respiration with α-ketoglutarate [2]: inhibited
C[N+](C)([BH2-]C#N)CC[N+](C)(C)[BH2-]C#N [XI, N,N,N^1,N^1 -Tetramethylethylenediamine-bis(cyanoborane)]	95 % Control	106 ± 21 % Control	168 ± 38 % Control	85 ± 4%	94%	80 ± 6 % Control	76 % Control		122 ± 13 % Control	116 ± 8 % Control	50 ± 7 % Control	84 ± 5 % Control	16 ± 5 % Control	200 mg/kg	inhibition of PMN cathepsin activity [10]: at least 82%
C[N+](C)([BH2-]C(=O)O)CC[N+](C)(C)[BH2-]C(=O)O [XII, N,N,N^1,N^1 -Tetramethylethylenediamine-bis(carboxyborane)]	58 % Control	48 ± 30 % Control	122 ± 15 % Control	60 ± 6%		69 ± 5 % Control	54 % Control	inhibited	57 ± 16 % Control	80 ± 11 % Control	23 ± 6 % Control	84 ± 4 % Control	52 ± 4 % Control	> 1000 mg/kg	inhibition of the carrageenan induced edema in mouse foot pads ([1]; text summary of Table II): at least 40%; uncoupling with α-ketoglutarate as substrate [2]: uncoupling; inhibition at 1 µM ([3]; read-out: inhibition of prostaglandin synthesis): > 30%; activity at 5 µmol ([4]; pH 7.4, 5 μmoles, in vitro, read-out: PMNs cAMP Level): 155%; activation at 5 µmol ([4]; in vitro incubation, 5 μmoles, read-out: increase of cyclic adenosine monophosphate levels in PMNs): 55%; inhibition of free proteolytic cathepsin activity of liver [8]: at least 75%
